Source: patent publication US6516294B1, “Nuclear receptor for 1α,25-dihydroxyvitamin D3 useful for selection of vitamin D3 ligands and a method therefor” (The Regents of the University of California, priority 1999, dated 2003)

Columns and labels:
VDR = molecular target: T1, VDR (Homo sapiens, UniProt P11473); experiment: Binding to the VDR relative to 1α,25(OH)2D3; settings: 1α,25(OH)2D3 as reference
T1 sequence (P11473 1-427): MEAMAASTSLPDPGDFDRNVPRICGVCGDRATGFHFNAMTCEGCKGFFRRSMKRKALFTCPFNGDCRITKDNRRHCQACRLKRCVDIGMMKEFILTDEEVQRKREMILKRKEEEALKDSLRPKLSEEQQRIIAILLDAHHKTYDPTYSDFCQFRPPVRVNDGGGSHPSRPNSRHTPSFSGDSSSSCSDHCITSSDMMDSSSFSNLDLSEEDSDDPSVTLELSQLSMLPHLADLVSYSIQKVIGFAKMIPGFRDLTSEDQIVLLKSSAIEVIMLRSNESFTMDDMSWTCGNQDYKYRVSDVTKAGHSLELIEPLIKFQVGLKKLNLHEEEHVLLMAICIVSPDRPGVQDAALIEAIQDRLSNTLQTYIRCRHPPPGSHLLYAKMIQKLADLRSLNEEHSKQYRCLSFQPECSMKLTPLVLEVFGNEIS
From the text: (§1) One striking ligand-receptor structure-function relationship for 1α,25(OH)2D3 analogs relates to the chiral center at carbon 20 (see FIG. 7A) of the steroid side chain. The 20-epi analogs are 100-10,000 times more transcriptionally potent than the natural hormone 1α,25(OH)2D3, even though their affinity for the VDR is not greater. It is also known that the side chain of 20-normal versus 20-epi analogs of 1α,25(OH)2D3 is able to access different regions of three-dimensional space around the C/D ring. […] Med. Chem. Lett., 3:1799 (1998).
(§2) The problem of docking in the VDR LBD a unique analog of 1α,25(OH)2D3 that has a second side chain attached to carbon 20, such as Gemini [21-(3′-hydroxy-3-methylbutyl)-1α,25(OH)2D3], was also evaluated. Thus, Gemini has both a 20-normal and a 20-epi side chain. […] This conclusion is also consistent both with the proposal that the ligand enters the VDR LBD leading with its A-ring and with the unique trypsin sensitivity of a VDR LBD-Gemini complex.

osteocalcin promoter = experiment: Transactivation of the osteocalcin promoter; type: cell-based; settings: more potent than 1α,25(OH)2D3
From the text: as §1
The seemingly benign structural change of the ligand from a 20-normal to 20-epi 1α,25(OH)2D3 results in a new conformational change in the VDR as assessed by trypsin sensitivity. This conformational change is believed to reflect an altered orientation of helix 12. Thus a VDR with a 20-epi ligand has an enhanced dimerization with RXR, resulting in increased transactivation of the osteocalcin promoter.
as §2

- binding to the VDR relative to 1α,25(OH)2D3 (VDR): 40%
Compound: C=C1/C(=C\C=C2/CCC[C@]3(C)[C@@H](C(CCCC(C)(C)O)CCCC(C)(C)O)CC[C@@H]23)C[C@H](O)C[C@H]1O [Gemini, 21-(3′-hydroxy-3-methylbutyl)-1α,25(OH)2D3]
- potency relative to 1α,25(OH)2D3, transactivation of the osteocalcin promoter (osteocalcin promoter): 13 -fold
